Legend:
Assay type in all cases: cell-based, murine
Ba/F3-PDGFRα-T674M [1] = assay: Apoptosis assay; parameters: unit not given here; conditions: approximately 3 days of treatment
Procedure: (§1) All cell lines were cultured with 5% CO2 at 37° C. in RPMI (Mediatech, Inc., Herndon, Va.) with 10% fetal calf serum (FCS) and supplemented with 1% L-glutamine. Parental Ba/F3 cells were similarly cultured with 15% WEHI-conditioned medium as a source of IL-3. Transfected cell lines were cultured in media supplemented with 1 mg/ml G418.
(§2) Cell cycle analysis was performed using approximately 500,000 cells, which were centrifuged at 1500 rpm for 5 min, washed in PBS, and the pellet re-suspended in 500 μl of propidium iodide solution (50 μg/ml propidium iodide, 0.1% NP-40, 0.1% sodium citrate). The mixture was stored in the dark at 4° C. for a minimum of 15 min, and then analyzed by flow cytometry. Apoptosis of drug-treated cells was measured using the Annexin-V-Fluos Staining Kit (Boehringer Mannheim, Indianapolis).
(§3) Cells cultured in the presence or absence of drug were washed 1× with phosphate-buffered saline (PBS) and centrifuged for 5 min at 1500 rpm. Washed cell pellets were re-suspended in 100 μl of 20% Annexin-V-fluorescein labeling reagent and 20% propidium iodide (PI) in HEPES buffer. Cells were incubated for 15 min at room temperature, followed by dilution with 0.8 ml of HEPES buffer. Samples were then analyzed by flow cytometry. As controls, cells were incubated for 15 min with PI alone, Annexin-V-fluorescein labeling reagent alone, or HEPES buffer, and then diluted with HEPES buffer and analyzed by flow cytometry.

Ba/F3-kit-T6701 [2] = assay: Apoptosis assay; parameters: unit not given here; conditions: approximately 3 days of treatment
Procedure: as §1, §2, §3

Ba/F3-PDGFRα-T674I [3] = assay: Apoptosis assay; parameters: unit not given here; conditions: approximately 3 days of treatment
Procedure: as §1, §2, §3

Ba/F3-PDGFRα-T674M [4] = assay: Cell cycle analysis; conditions: 24 hours of treatment
Procedure: as §1, §2

Ba/F3-kit-T6701 [5] = assay: Cell cycle analysis; conditions: 24 hours of treatment
Procedure: as §1, §2

Ba/F3-PDGFRα-T674I [6] = assay: Cell cycle analysis; conditions: 24 hours of treatment
Procedure: as §1, §2

Ba/F3-insAY + T6701 = assay: Relative IC50 in kit-expressing cell line; conditions: Mus musculus, 2.5-3 days, read-out: Relative IC50 range
Procedure: (§4) All compounds were initially dissolved in DMSO to make 10 mM stock solutions, and then were serially diluted to obtain final concentrations for in vitro experiments.
as §1

Ba/F3-V6559D = assay: Relative IC50 in kit-expressing cell line; conditions: Mus musculus, 2.5-3 days, read-out: Relative IC50 range
Procedure: as §4, §1

Ba/F3-delWK + T6701 = assay: Relative IC50 in kit-expressing cell line; conditions: Mus musculus, 2.5-3 days, read-out: Relative IC50 range
Procedure: as §4, §1

Ba/F3-insAY = assay: Relative IC50 in kit-expressing cell line; conditions: Mus musculus, 2.5-3 days, read-out: Relative IC50 range
Procedure: as §4, §1

Ba/F3-insAY + V654A = assay: Relative IC50 in kit-expressing cell line; conditions: Mus musculus, 2.5-3 days, read-out: Relative IC50 range
Procedure: as §4, §1

Ba/F3-delWK + V654A = assay: Relative IC50 in kit-expressing cell line; conditions: Mus musculus, 2.5-3 days, read-out: Relative IC50 range
Procedure: as §4, §1

Ba/F3-delWK = assay: Relative IC50 in kit-expressing cell line; conditions: Mus musculus, 2.5-3 days, read-out: Relative IC50 range
Procedure: as §4, §1

Ba/F3-delWK + Y823D = assay: Relative IC50 in kit-expressing cell line; conditions: Mus musculus, 2.5-3 days, read-out: Relative IC50 range
Procedure: as §4, §1

In the case of `CCN1CCN(Cc2ccc(NC(=O)c3cccc(-c4ccc5nc(NC(=O)C6CC6)sc5n4)c3)cc2C(F)(F)F)CC1` [Compound 2], the Apoptotic (Ba/F3-PDGFRα-T674M [1]; 0.01 μM) is reported as 9, the Necrotic (Ba/F3-PDGFRα-T674M [1]; 0.01 μM) is reported as 0 and the Viable (Ba/F3-PDGFRα-T674M [1]; 0.01 μM) is reported as 91. The Apoptotic (Ba/F3-PDGFRα-T674M [1]; 0.1 μM) was 65.2, the Necrotic (Ba/F3-PDGFRα-T674M [1]; 0.1 μM) was 0 and the Viable (Ba/F3-PDGFRα-T674M [1]; 0.1 μM) was 34.7. For the same compound, the Apoptotic (Ba/F3-PDGFRα-T674M [1]; 1.0 μM) was 86.80, the Necrotic (Ba/F3-PDGFRα-T674M [1]; 1.0 μM) was 0.1 and the Viable (Ba/F3-PDGFRα-T674M [1]; 1.0 μM) was 13.2. It also gave an Apoptotic (Ba/F3-kit-T6701 [2]; 0.01 μM) of 2.3, a Necrotic (Ba/F3-kit-T6701 [2]; 0.01 μM) of 0 and a Viable (Ba/F3-kit-T6701 [2]; 0.01 μM) of 97.7. The Apoptotic (Ba/F3-kit-T6701 [2]; 0.1 μM) was 3.1, the Necrotic (Ba/F3-kit-T6701 [2]; 0.1 μM) was 0 and the Viable (Ba/F3-kit-T6701 [2]; 0.1 μM) was 96.9. The Apoptotic (Ba/F3-kit-T6701 [2]; 1.0 μM) was 8.4, the Necrotic (Ba/F3-kit-T6701 [2]; 1.0 μM) was 0 and the Viable (Ba/F3-kit-T6701 [2]; 1.0 μM) was 91.6. It also gave an Apoptotic (Ba/F3-PDGFRα-T674I [3]; 0.01 μM) of 38.1, a Necrotic (Ba/F3-PDGFRα-T674I [3]; 0.01 μM) of 0.1 and a Viable (Ba/F3-PDGFRα-T674I [3]; 0.01 μM) of 61.9. It also gave an Apoptotic (Ba/F3-PDGFRα-T674I [3]; 0.1 μM) of 84.7, a Necrotic (Ba/F3-PDGFRα-T674I [3]; 0.1 μM) of 0.2 and a Viable (Ba/F3-PDGFRα-T674I [3]; 0.1 μM) of 15.2. The Apoptotic (Ba/F3-PDGFRα-T674I [3]; 1.0 μM) was 94.1, the Necrotic (Ba/F3-PDGFRα-T674I [3]; 1.0 μM) was 0 and the Viable (Ba/F3-PDGFRα-T674I [3]; 1.0 μM) was 5.8. The “% G0G1” value (Ba/F3-PDGFRα-T674M [4]; 0.01 μM) was 40.81%, the “% G2M” value (Ba/F3-PDGFRα-T674M [4]; 0.01 μM) was 7.41% and the “% S” value (Ba/F3-PDGFRα-T674M [4]; 0.01 μM) was 51.78%. The “% G0G1” value (Ba/F3-PDGFRα-T674M [4]; 0.1 μM) was 72.37%, the “% G2M” value (Ba/F3-PDGFRα-T674M [4]; 0.1 μM) was 3.62% and the “% S” value (Ba/F3-PDGFRα-T674M [4]; 0.1 μM) was 24.01%. The “% G0G1” value (Ba/F3-PDGFRα-T674M [4]; 1.0 μM) was 79.92%, the “% G2M” value (Ba/F3-PDGFRα-T674M [4]; 1.0 μM) was 2.46% and the “% S” value (Ba/F3-PDGFRα-T674M [4]; 1.0 μM) was 17.61%. For the same compound, the “% G0G1” value (Ba/F3-kit-T6701 [5]; 0.01 μM) was 35.2%, the “% G2M” value (Ba/F3-kit-T6701 [5]; 0.01 μM) was 14.62% and the “% S” value (Ba/F3-kit-T6701 [5]; 0.01 μM) was 50.19%. The “% G0G1” value (Ba/F3-kit-T6701 [5]; 0.1 μM) was 29.01%, the “% G2M” value (Ba/F3-kit-T6701 [5]; 0.1 μM) was 16.54% and the “% S” value (Ba/F3-kit-T6701 [5]; 0.1 μM) was 54.45%. For the same compound, the “% G0G1” value (Ba/F3-kit-T6701 [5]; 1.0 μM) was 52.57%, the “% G2M” value (Ba/F3-kit-T6701 [5]; 1.0 μM) was 10.05% and the “% S” value (Ba/F3-kit-T6701 [5]; 1.0 μM) was 37.38%. For the same compound, the “% G0G1” value (Ba/F3-PDGFRα-T674I [6]; 0.01 μM) was 57.30%, the “% G2M” value (Ba/F3-PDGFRα-T674I [6]; 0.01 μM) was 5.98% and the “% S” value (Ba/F3-PDGFRα-T674I [6]; 0.01 μM) was 36.72%. The “% G0G1” value (Ba/F3-PDGFRα-T674I [6]; 0.1 μM) was 64.90%, the “% G2M” value (Ba/F3-PDGFRα-T674I [6]; 0.1 μM) was 5.82% and the “% S” value (Ba/F3-PDGFRα-T674I [6]; 0.1 μM) was 29.28%. For the same compound, the “% G0G1” value (Ba/F3-PDGFRα-T674I [6]; 1.0 μM) was 77.55%, the “% G2M” value (Ba/F3-PDGFRα-T674I [6]; 1.0 μM) was 7.16% and the “% S” value (Ba/F3-PDGFRα-T674I [6]; 1.0 μM) was 15.29%. For the same compound, the IC50 (Ba/F3-insAY + T6701) was at least 1000 nM, the IC50 (Ba/F3-V6559D) was 250 to 500 nM and the IC50 (Ba/F3-delWK + T6701) was 25 to 50 nM. The IC50 (Ba/F3-insAY) was over 1000 nM, the IC50 (Ba/F3-insAY + V654A) was over 1000 nM and the IC50 (Ba/F3-delWK + V654A) was 25 to 50 nM. For the same compound, the IC50 (Ba/F3-delWK) was 12.5 to 25 nM and the IC50 (Ba/F3-delWK + Y823D) was 500 to 1000 nM.

— US8765747B2, “Fused 2-aminothiazole compounds” (Dana-Farber Cancer Institute, Inc., priority 2009, dated 2014)
